Results published in patent US12552800B2, “Compounds for diagnosis” (AC IMMUNE SA, priority 2020, dated 2026).
Entries after “also recorded” stand apart in the source; their conditions may differ.

Tests used:
[1] = molecular target: T1, Abeta pathological aggregates (Homo sapiens, UniProt P05067); assay: Radiobinding competition assay against [^3H]-Abeta-Ref on AD brain homogenates (example compound 4); type: binding; conditions: displacement of [^3H]-Abeta-Ref at 10 nM, AD brain-derived homogenates
T1 construct: Abeta pathological aggregates present in the human AD brain homogenates; from tissue; host or cells: human AD donor brain, Triton/sucrose-insoluble 100,000 x g pellet
Procedure: The procedure was adapted from the protocol described in Bagchi et al., 2013. Frozen tissue blocks from AD donors were thawed on ice and homogenized in high salt buffer (50 mM Tris-HCl pH 7.5, 0.75M NaCl, 5 mM EDTA) supplemented with protease inhibitors (Complete; Roche 11697498001) at 4° C. using a glass Dounce homogenizer. The homogenate was centrifuged at 100,000×g (38,000 RPM) in an ultracentrifuge (Beckman, XL100K) for one hour at 4° C. using a pre-cooled 70.1 rotor (Beckman, 342184). Pellets were resuspended in high salt buffer supplemented with 1% Triton X-100 and homogenized at 4° C. using a glass Dounce homogenizer. The homogenates were centrifuged again at 100,000×g (38,000 RPM, 70.1 rotor) for one hour at 4° C. Pellets were resuspended in high salt buffer supplemented with 1% Triton X-100 and 1 M sucrose and homogenized at 4° C. using a glass Dounce homogenizer. The homogenates were centrifuged at 100,000×g (38,000 RPM, 70.1 rotor) for one hour at 4° C. […]
A fixed concentration of AD insoluble fraction was incubated with a tritiated reference Abeta ligand ([^3H]-Abeta-Ref) at 10 nM and increasing concentrations of non-radiolabelled example compound 1 in the range of 400 pM to 2 μM for two hours at RT. […] The filters were analyzed on a Microbeta2 scintillation counter (PerkinElmer). […]

[2] = molecular target: T2, PD brain-derived a-syn aggregates (Homo sapiens, UniProt P37840); assay: Micro-radiobinding competition assay against Example-1 [^3H-1] (Table 8); type: binding
T2 construct: from tissue; host or cells: human PD donor brain, sarkosyl-insoluble 100,000 x g pellet
Method in brief: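 Human PD brain-derived α-syn aggregates on microarray slides were co-incubated with 6 nM or 20 nM tritiated radioligand and unlabelled compound at 1 μM and 100 nM, some over 0.05 nM–2 μM. Bound signal read by real-time autoradiography; values are % competition, at least two technical replicates, mean of independent experiments.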

[3] = molecular target: T2, PD brain-derived a-syn aggregates; assay: Saturation binding of Example-4 [^3H-4] by micro-radiobinding; conditions: PD homogenates
Procedure: PD brain-derived a-syn aggregates were spotted onto microarray slides. The slides were incubated with Example-4 [^3H-4] at increasing concentrations in the range of 1.56 nM to 80 nM. After incubation, slides were scanned by a real-time autoradiography system (BeaQuant instrument, ai4R). Quantification of the signal was performed by using the Beamage image analysis software (ai4R).

pathological a-synuclein = assay: Autoradiography of Example-4 [^3H-4] in brain sections from PD, MSA and NDC donors; type: binding, human; conditions: 10 nM
Procedure: Frozen human brain sections from one familial PD case (a-synuclein [SNCA] gene G51 D missense mutation), labelled as SNCA, one idiopathic PD case, one MSA case and two non-demented control (NDC) cases were first briefly fixed for 15 minutes at 4° C. with 4% paraformaldehyde (Sigma, 252549) and washed three times for five minutes with PBS (Dulbecco's phosphate buffered saline, Sigma) at RT. All slides were then equilibrated for 20 minutes in 50 mM Tris-HCl pH 7.4 buffer prior to use in the experiment. Each brain section was incubated with a fixed concentration (10 nM) of tritiated example compound 4 (Example-4 [^3H-4]) in Tris-HCl buffer for two hours at RT (Total binding, ‘Total’). […] The slides were washed and then exposed and scanned in a real-time autoradiography system (BeaQuant instrument, ai4R).

[4] = molecular target: T3, a-syn aggregates (Lewy bodies and Lewy neurites) (Homo sapiens, UniProt P37840); assay: High resolution micro-autoradiography of Example-4 [^3H-4] on PD tissue; type: binding; conditions: 20 nM
T3 construct: performed on frozen human brain sections from different a-synucleinopathy cases; from tissue; host or cells: frozen human brain sections (PD, PDD, MSA, DLB, LBV; NDC as controls)
Procedure: (§1) The protocol was adapted from Marquie et al., 2015. Sections were incubated with tritiated example compound 4 (Example-4 [^3H-4]) or a reference Tau ligand ([^3H]-Tau-Ref at 20 nM for one hour at RT. Sections were then washed as follows: One time in ice-cold 50 mM Tris-HCl pH 7.4 buffer for one minute, two times in 70% ice-cold ethanol for one minute, one time in ice-cold 50 mM Tris-HCl pH 7.4 buffer for one minute and finally rinsed briefly in ice-cold distilled water. Sections were subsequently dried and then exposed to Ilford Nuclear Emulsion Type K5 (Agar Scientific, AGP9281) in a light-proof slide storage box. After five days, the sections were developed by immersing them successively in the following solutions: 1.) Ilford Phenisol Developer (1:5 dilution in H2O, Agar Scientific, AGP9106), 2.) Ilfostop solution (1:20 dilution in H2O, Agar Scientific, AGP9104), 3.) Ilford Hypam Fixer (1:5 dilution in H2O, Agar Scientific, AGP9183) and finally rinsed with H2O.
When indicated, immunostaining was also performed on the same section. For image acquisition, sections were mounted using ProLong Gold Antifade reagent (Invitrogen P36930) and imaged on a Panoramic150 Slide Scanner (3DHistech) with a 20× objective capturing separately brightfield and fluorescent images. […]

Tau aggregates = assay: Micro-autoradiography of Example-4 [^3H-4] on AD tissue; type: binding, human; conditions: AD brain tissue, compared to [^3H]-Tau-Ref
Procedure: as §1

T1 sequence (P05067 672-713 limits assumed): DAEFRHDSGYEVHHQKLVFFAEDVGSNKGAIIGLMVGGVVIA

Ki [1] [nM]	Competition at 100 nM (%) ([2]; 100 nM non-radiolabelled example compound vs Example-1 [^3H-1] ligand, human PD brain-derived a-syn aggregates)	Competition at 1 μM (%) ([2]; 1 μM non-radiolabelled example compound vs Example-1 [^3H-1] ligand, human PD brain-derived a-syn aggregates)	Ki ([2]; mean of Ki values in independent experiments using PD brain-derived homogenates from three different donors) [nM]	Kd [3] [nM]	specific binding in a-synucleinopathy tissues (pathological a-synuclein; MSA, familial PD, idiopathic PD)	SMILES	signal in non-diseased control cases (pathological a-synuclein)	target engagement on Lewy bodies and Lewy neurites (silver grains) [4]	target engagement on Tau aggregates (Tau aggregates)	target engagement on Tau aggregates (Tau aggregates; listed as Example-4 [^3H-1])
297	58	92	50			Cn1cc(N2Cc3nn(-c4ccc(N5CC[C@@H](F)C5)nc4)cc3C2=O)cn1 [Example 4]				
				21	specific binding	[3H]C([3H])([3H])n1cc(N2Cc3nn(-c4ccc(N5CC[C@@H](F)C5)nc4)cc3C2=O)cn1 [Example-4 [^3H-4]]	very weak signal	Accumulation of silver grains on Lewy bodies and Lewy neurites; also recorded: strong target engagement	did not display specific target engagement	No accumulation of silver grains
